According to patent US20220235043A1, “SUBSTITUTED SULFONAMIDE PYRROLOPYRIDINES AS JAK INHIBITORS” (ACLARIS THERAPEUTICS, INC., priority 2019, published 2022):

Key:
[1] = system: IL-12 stimulated STAT4 phosphorylation on Tyr693 (JAK2/TYK2); assay: JAK2/TYK2 cellular target modulation: IL-12 stimulated phospho-STAT4 in human PBMC; assay type: cell-based; details: IL-12 1.7 ng/ml, read-out: IL12-STAT4 IC50
From the text: (§1) Target modulation was based upon the ability of a compound to inhibit JAK isoform specific phosphorylation of selected substrates. IL-2 stimulated STAT5 phosphorylation on Tyr694 was used to assess JAK1/3 compound selectivity. GM-CSF stimulated STAT5 phosphorylation on Tyr694 was used to assess JAK2 compound selectivity. IFNγ stimulated STAT1 phosphorylation on Tyr701 was used to assess JAK1/2 compound selectivity. IL-12 stimulated STAT4 phosphorylation on Tyr693 was used to assess JAK2/TYK2 compound selectivity. For all four assays, human PBMC from frozen stocks were thawed, pelleted, resuspended in complete media (90% RPMI, 10% heat inactivated FBS, 10 mM HEPES, 47 μM 2-ME, pen/strep) and placed in wells of a 96 well V-bottom plate at 200,000 per well in 120 μl complete media. Compounds were added as 15 μl per well of 10× working stock solutions in complete media with 1% DMSO (or medium with 1% DMSO for controls) and placed on a plate shaker in a 37° C. incubator with 5% CO2 for 1 hour with gentle shaking (setting of 3). Stimulation used the addition of soluble cytokines. For the JAK1/3 phospho-STAT5 assay, 15 μl of 10× working stock recombinant human IL-2 was added to a final concentration of 25 ng/ml. For the JAK2 phospho-STAT5 assay, 15 μl of 10× working stock recombinant human GM-CSF was added to a final concentration of 5 ng/ml. For the JAK1/2 phospho-STAT1 assay, 15 μl of 10× working stock of recombinant human IFNγ was added to a final concentration of 10 ng/ml. For the JAK2/TYK2 phospho-STAT4 assay, 15 μl of 10× working stock of recombinant human IL-12 was added to a final concentration of 1.7 ng/ml. Plates were then placed back on the plate shaker in the incubator for an additional 5, 5, 10, and 25 minutes respectively upon which the plates were removed from the incubator, sealed with a plate sealer and the cells pelleted at 400×g for 5 minutes. After pelleting, the media was removed by aspiration and the cells were lysed in assay specific cell lysis buffer. The levels of phospho-STAT5 were determined using a Phospho (Tyr694)STAT5a,b Whole Cell Lysate kit from Meso Scale Discovery. Levels of phospho-STAT1 were determined using a CST-PathScan Phospho-STAT1 (Tyr701) Sandwich ELISA kit. Levels of phospho-STAT4 were determined using a Phospho-STAT4 (Tyr693) Whole Cell Lysate kit from Meso Scale Discovery.

[2] = target: T1, JAK3 (a.a. 781-1124) (Homo sapiens, UniProt P52333); assay: JAK3 enzyme activity assay (SRCtide phosphorylation, Caliper); assay type: biochemical; details: 1 uM ATP; read-out: JAK3 Inhibition IC50
T1 construct: JAK3 (a.a. 781-1124, ThermoFisher); purchased ThermoFisher
Description: The activity of JAK3 (a.a. 781-1124, ThermoFisher) was quantified by measuring the phosphorylation of SRCtide (FAM-GEEPLYWSFPAKKK-NH2). Kinase reactions were run in a 384-well Greiner plate with 2% final DMSO concentration under the buffer conditions of 20 mM HEPES, pH 7.5, 10 mM MgCl2, 0.01% BSA, and 0.0005% Tween-20. The kinase reaction components were 2.5 nM JAK3, 1 μM SRCtide peptide and 1 uM ATP. Examples were tested in dose-response starting at […] (11 concentrations, 3-fold serial dilution, duplicate reactions). The reactions were incubated at room temperature for 40 minutes, then stopped by adding a 1:1 volume of 30 mM EDTA in 20 mM HEPES, pH 7.5 (15 mM EDTA final). After the reaction was stopped, the phosphorylated and unphosphorylated peptides were separated and quantified using a Caliper LC3000/EZ-Reader system and HTS Well Analyzer Software (Caliper, A PerkinElmer Company, Hopkinton, Mass.). GraFit (Erithacus Software Ltd., Horley, U.K.) was used to calculate inhibitor potency by fitting dose-response data to the 4-parameter logistical IC50 equation.

[3] = system: IL-2 stimulated STAT5 phosphorylation on Tyr694 (JAK1/3); assay: JAK1/3 cellular target modulation: IL-2 stimulated phospho-STAT5 in human PBMC; assay type: cell-based; details: IL-2 25 ng/ml, read-out: IL2-STAT5 IC50
From the text: as §1

[4] = target: T2, JAK1 (Homo sapiens, UniProt P23458); assay: JAK1 enzyme activity assay (Thermo Fisher Selectscreen, Z-lyte); assay type: biochemical; details: read-out: JAK1 Inhibition IC50
T2 construct: purchased Thermo Fisher Scientific (SelectScreen service)
Description: (§2) The inhibitory potency of candidate compounds of JAK1, JAK2, and Tyk-2 was done at Thermo Fisher Scientific in their Selectscreen using a Z-lyte assay. Following are the assay details for each enzyme.
JAK1: The 2×JAK-enzyme/Tyr 06 mixture is prepared in 50 mM HEPES pH 6.5, 0.01% BRIJ-35, 10 mM MgCl2, 1 mM EGTA, 0.02% NaN3. The final 10 μL of the Kinase Reaction consists of 21.2-91.5 ng JAK1 and 2 μM Tyr 06 in 50 mM HEPES pH 7.0, 0.01% BRIJ-35, 10 mM MgCl2, 1 mM EGTA, 0.01% NaN3. After the one hour Kinase Reaction incubation, 5 μL of a 1:128 dilution of Development Reagent is added.
(§3) Data reduction for JAK1, JAK2 and TYK2 is done the same, independent of the enzyme run. In summary, background signal is defined in the absence of enzyme and uninhibited signal is defined in the presence of vehicle (2% DMSO) alone. Compounds were evaluated in an 11 point dose-response ranging from […] to 0.34 nM. IC50 values of compounds are determined using a 4 parameter logistical fit of emission ratio as a function of the concentration of compound.

[5] = target: T3, Tyk-2 (Homo sapiens, UniProt P29597); assay: Tyk-2 enzyme activity assay (Thermo Fisher Selectscreen, Z-lyte); assay type: biochemical; details: read-out: Tyk-2 Inhibition IC50
T3 construct: purchased Thermo Fisher Scientific (SelectScreen service)
Description: as §2
TYK2: The 2×TYK2/Tyr 03 mixture is prepared in 50 mM HEPES pH 6.5, 0.01% BRIJ-35, 10 mM MgCl2, 1 mM EGTA, 0.02% NaN3. The final 10 μL Kinase Reaction consists of 3.75-15 ng TYK2 and 2 μM Tyr 03 in 50 mM HEPES pH 7.0, 0.01% BRIJ-35, 10 mM MgCl2, 1 mM EGTA, 0.01% NaN3. After the one hour KinaseReaction incubation, 5 μL of a 1:4096 dilution of Development Reagent A is added.
as §3

[6] = target: T4, JAK2 (Homo sapiens, UniProt O60674); assay: JAK2 enzyme activity assay (Thermo Fisher Selectscreen, Z-lyte); assay type: biochemical; details: read-out: JAK2 Inhibition IC50
T4 construct: purchased Thermo Fisher Scientific (SelectScreen service)
Description: as §2
JAK2: The 2×JAK2/Tyr 06 mixture is prepared in 50 mM HEPES pH 7.5, 0.01% BRIJ-35, 10 mM MgCl2, 1 mM EGTA. The final 10 μL Kinase Reaction consists of 0.12-0.5 ng JAK2 and 2 μM Tyr 06 in 50 mM HEPES pH 7.5, 0.01% BRIJ-35, 10 mM MgCl2, 1 mM EGTA. After the one hour Kinase Reaction incubation, 5 μL of a 1:128 dilution of Development Reagent A is added.
as §3

[7] = system: IFNγ stimulated STAT1 phosphorylation on Tyr701 (JAK1/2); assay: JAK1/2 cellular target modulation: IFNγ stimulated phospho-STAT1 in human PBMC; assay type: cell-based; details: IFNγ 10 ng/ml, read-out: Infγ-STAT1 IC50
From the text: as §1

T4 sequence (O60674 whole entry): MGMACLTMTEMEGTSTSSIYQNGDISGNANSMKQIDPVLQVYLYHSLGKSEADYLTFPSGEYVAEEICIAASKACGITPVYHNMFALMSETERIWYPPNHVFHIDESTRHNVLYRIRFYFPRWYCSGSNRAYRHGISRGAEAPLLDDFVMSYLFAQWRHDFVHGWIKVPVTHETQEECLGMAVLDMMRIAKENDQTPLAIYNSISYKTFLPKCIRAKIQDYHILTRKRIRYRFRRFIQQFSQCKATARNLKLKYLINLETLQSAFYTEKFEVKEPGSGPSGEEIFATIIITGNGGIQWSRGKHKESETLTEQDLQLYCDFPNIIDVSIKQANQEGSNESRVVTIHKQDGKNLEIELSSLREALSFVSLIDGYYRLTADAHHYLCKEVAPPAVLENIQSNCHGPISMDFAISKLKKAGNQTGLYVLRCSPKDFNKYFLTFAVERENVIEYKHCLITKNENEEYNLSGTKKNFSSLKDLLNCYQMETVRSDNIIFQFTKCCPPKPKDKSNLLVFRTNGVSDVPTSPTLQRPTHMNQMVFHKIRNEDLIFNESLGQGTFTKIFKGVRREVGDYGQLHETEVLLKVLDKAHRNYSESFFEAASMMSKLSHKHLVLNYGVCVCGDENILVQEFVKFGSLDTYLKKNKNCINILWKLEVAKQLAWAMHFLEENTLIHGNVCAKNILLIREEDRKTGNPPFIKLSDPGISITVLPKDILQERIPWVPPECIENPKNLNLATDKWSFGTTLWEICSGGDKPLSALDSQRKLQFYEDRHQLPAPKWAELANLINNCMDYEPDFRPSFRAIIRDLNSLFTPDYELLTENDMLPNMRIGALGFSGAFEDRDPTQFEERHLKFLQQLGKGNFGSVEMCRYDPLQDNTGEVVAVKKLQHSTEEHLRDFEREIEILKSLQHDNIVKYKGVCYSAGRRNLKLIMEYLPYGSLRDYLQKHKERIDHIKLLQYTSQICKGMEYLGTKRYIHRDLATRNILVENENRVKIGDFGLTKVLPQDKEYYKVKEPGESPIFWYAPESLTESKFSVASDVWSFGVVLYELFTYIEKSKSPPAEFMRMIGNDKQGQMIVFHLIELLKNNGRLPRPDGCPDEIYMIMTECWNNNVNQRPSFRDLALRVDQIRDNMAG
T2 sequence (P23458 whole entry): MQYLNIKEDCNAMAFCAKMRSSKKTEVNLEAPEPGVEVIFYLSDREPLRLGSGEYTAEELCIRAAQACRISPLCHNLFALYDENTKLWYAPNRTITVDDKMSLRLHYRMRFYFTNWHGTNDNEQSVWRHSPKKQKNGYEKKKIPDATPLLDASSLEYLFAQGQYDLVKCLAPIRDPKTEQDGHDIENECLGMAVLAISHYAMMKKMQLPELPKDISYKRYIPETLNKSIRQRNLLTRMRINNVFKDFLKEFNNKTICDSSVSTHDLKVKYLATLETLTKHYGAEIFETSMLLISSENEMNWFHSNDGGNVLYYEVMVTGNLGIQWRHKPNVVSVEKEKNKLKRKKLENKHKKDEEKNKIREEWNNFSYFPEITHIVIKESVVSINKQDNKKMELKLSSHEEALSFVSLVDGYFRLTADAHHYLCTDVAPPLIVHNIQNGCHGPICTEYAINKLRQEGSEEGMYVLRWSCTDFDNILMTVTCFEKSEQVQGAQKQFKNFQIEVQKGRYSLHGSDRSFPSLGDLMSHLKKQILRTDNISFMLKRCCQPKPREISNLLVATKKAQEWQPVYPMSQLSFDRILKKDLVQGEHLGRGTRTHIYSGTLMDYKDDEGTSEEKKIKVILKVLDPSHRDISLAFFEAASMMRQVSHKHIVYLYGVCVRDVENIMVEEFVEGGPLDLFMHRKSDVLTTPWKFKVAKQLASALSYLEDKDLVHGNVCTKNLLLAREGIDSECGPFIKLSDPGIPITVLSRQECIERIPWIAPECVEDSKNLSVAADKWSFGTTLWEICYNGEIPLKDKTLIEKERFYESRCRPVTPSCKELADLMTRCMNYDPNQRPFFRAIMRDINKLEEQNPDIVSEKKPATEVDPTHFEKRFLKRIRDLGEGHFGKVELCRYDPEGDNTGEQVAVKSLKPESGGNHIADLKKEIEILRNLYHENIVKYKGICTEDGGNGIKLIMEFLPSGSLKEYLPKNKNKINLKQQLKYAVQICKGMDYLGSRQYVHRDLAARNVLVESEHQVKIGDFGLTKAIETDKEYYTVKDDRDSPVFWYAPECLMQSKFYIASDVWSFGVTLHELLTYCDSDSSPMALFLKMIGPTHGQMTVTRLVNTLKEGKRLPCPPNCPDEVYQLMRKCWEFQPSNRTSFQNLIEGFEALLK
T3 sequence (P29597 whole entry): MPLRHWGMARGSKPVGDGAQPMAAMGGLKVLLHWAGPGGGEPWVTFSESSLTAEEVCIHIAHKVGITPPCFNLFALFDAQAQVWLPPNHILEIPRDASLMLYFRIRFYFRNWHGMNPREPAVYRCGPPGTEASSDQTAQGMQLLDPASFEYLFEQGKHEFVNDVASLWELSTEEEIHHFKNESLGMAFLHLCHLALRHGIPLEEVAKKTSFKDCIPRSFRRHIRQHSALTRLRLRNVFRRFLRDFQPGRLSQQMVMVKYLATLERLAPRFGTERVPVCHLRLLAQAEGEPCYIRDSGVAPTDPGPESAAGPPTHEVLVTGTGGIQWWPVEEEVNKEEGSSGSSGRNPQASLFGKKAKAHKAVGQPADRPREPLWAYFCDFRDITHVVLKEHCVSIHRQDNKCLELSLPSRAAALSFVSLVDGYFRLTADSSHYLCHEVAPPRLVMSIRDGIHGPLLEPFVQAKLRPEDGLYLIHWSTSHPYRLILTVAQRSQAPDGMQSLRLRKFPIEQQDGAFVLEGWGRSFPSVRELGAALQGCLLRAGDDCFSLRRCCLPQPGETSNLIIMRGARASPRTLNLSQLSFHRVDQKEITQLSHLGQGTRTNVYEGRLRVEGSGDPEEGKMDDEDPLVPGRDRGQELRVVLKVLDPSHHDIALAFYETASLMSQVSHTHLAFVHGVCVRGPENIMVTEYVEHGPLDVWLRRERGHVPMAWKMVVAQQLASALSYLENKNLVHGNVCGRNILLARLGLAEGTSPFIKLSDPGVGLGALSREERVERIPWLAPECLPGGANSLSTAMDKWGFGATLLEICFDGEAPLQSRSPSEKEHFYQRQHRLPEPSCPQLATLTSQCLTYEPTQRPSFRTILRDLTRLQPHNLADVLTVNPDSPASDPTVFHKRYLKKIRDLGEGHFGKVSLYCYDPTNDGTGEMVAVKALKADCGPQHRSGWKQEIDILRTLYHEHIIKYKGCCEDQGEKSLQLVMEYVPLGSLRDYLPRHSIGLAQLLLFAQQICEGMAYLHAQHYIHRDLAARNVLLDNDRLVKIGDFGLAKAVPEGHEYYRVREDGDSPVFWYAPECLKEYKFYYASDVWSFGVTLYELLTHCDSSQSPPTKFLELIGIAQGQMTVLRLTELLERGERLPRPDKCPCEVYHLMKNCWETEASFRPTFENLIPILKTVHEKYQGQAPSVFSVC
T1 sequence (P52333 781-1124): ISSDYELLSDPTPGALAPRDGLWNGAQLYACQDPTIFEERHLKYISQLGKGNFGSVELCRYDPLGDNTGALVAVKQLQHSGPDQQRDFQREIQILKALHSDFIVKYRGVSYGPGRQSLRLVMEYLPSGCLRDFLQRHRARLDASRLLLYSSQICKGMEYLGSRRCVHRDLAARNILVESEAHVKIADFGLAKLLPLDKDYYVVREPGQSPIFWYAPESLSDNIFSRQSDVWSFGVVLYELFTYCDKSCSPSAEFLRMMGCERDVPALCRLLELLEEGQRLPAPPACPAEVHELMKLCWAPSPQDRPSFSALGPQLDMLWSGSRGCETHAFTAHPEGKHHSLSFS

Row | IC50 [1] | IC50 [2] | IC50 [3] | IC50 [4] | IC50 [5] | IC50 [6] | IC50 [7] | SMILES
1 | > 1000 nM | 10 to 100 nM | 100 to 1000 nM | ≤ 10 nM | 10 to 100 nM | ≤ 10 nM | 100 to 1000 nM | CNC(=O)c1csc(-c2cnc3[nH]ccc3c2N[C@H]2C[C@@H](NS(=O)(=O)c3cccc(C#N)c3)C2)n1 [Example 21, 2-(4-(((1s,3s)-3-((3-cyanophenyl)sulfonamido)cyclobutyl)amino)-1H-pyrrolo[2,3-b]pyridin-5-yl)-N-methylthiazole-4-carboxamide]
2 | > 1000 nM | 10 to 100 nM | 100 to 1000 nM | ≤ 10 nM | 10 to 100 nM | ≤ 10 nM | 100 to 1000 nM | N#Cc1ccnc(S(=O)(=O)N[C@H]2C[C@H](Nc3c(-c4ccncn4)cnc4[nH]ccc34)C2)c1 [Example 63, 4-cyano-N-((1r,3r)-3-((5-(pyrimidin-4-yl)-1H-pyrrolo[2,3-b]pyridin-4-yl)amino)cyclobutyl)pyridine-2-sulfonamide]
3 | > 1000 nM | ≤ 10 nM | ≤ 100 nM | ≤ 10 nM | ≤ 10 nM | ≤ 10 nM | 100 to 1000 nM | N#Cc1cccc(S(=O)(=O)N[C@H]2C[C@@H](Nc3c(-c4ccncn4)cnc4[nH]ccc34)C2)c1 [Example 64, 3-cyano-N-((1s,3s)-3-((5-(pyrimidin-4-yl)-1H-pyrrolo[2,3-b]pyridin-4-yl)amino)cyclobutyl)benzenesulfonamide]
4 | > 1000 nM | 100 to 1000 nM | 100 to 1000 nM | ≤ 10 nM | 10 to 100 nM | 10 to 100 nM | > 1000 nM | CNC(=O)c1ccnc(-c2cnc3[nH]ccc3c2N[C@H]2C[C@@H](NS(=O)(=O)c3cccc(C#N)c3)C2)c1 [Example 66, 2-(4-(((1s,3s)-3-((3-cyanophenyl)sulfonamido)cyclobutyl)amino)-1H-pyrrolo[2,3-b]pyridin-5-yl)-N-methylisonicotinamide]
5 | 100 to 1000 nM | ≤ 10 nM | ≤ 100 nM | ≤ 10 nM | ≤ 10 nM | ≤ 10 nM | 100 to 1000 nM | N#Cc1cccc(S(=O)(=O)N[C@H]2C[C@@H](Nc3c(-c4nccs4)cnc4[nH]ccc34)C2)c1 [Example 69, 3-cyano-N-((1s,3s)-3-((5-(thiazol-2-yl)-1H-pyrrolo[2,3-b]pyridin-4-yl)amino)cyclobutyl)benzenesulfonamide]
6 | > 1000 nM | 10 to 100 nM | ≤ 100 nM | ≤ 10 nM | 10 to 100 nM | 10 to 100 nM | 100 to 1000 nM | CCCS(=O)(=O)N[C@H]1C[C@@H](Nc2c(-c3nccs3)cnc3[nH]ccc23)C1 [Example 70, N-((1s,3s)-3-((5-(thiazol-2-yl)-1H-pyrrolo[2,3-b]pyridin-4-yl)amino)cyclobutyl)propane-1-sulfonamide]
7 | > 1000 nM | 10 to 100 nM | 100 to 1000 nM | ≤ 10 nM | 100 to 1000 nM | 10 to 100 nM | 100 to 1000 nM | CCCS(=O)(=O)N[C@H]1C[C@@H](Nc2c(-c3nc(C(=O)NC)co3)cnc3[nH]ccc23)C1 [Example 71, N-methyl-2-(4-(((1s,3s)-3-(propylsulfonamido)cyclobutyl)amino)-1H-pyrrolo[2,3-b]pyridin-5-yl)oxazole-4-carboxamide]
8 | > 1000 nM | 10 to 100 nM | 100 to 1000 nM | 10 to 100 nM | 100 to 1000 nM | 10 to 100 nM | > 1000 nM | CCCS(=O)(=O)N[C@H]1C[C@@H](Nc2c(-c3nc(C(=O)NC)cs3)cnc3[nH]ccc23)C1 [Example 72, N-methyl-2-(4-(((1s,3s)-3-(propylsulfonamido)cyclobutyl)amino)-1H-pyrrolo[2,3-b]pyridin-5-yl)thiazole-4-carboxamide]
